Test results as given in US10550422B2, “Methods and compositions for labeling nucleic acids” (President and Fellows of Harvard College, priority 2005, dated 2020).

Key:
HeLa cells [1] = assay: AdU labeling of HeLa cells, stained with Alexa568-alkyne; type: cell-based; conditions: 10 μM AdU overnight, 10 μM Alexa568-alkyne; FIG. 16
Description: Here HeLa cells were labeled overnight in 10 μM AdU and then stained with 10 μM Alexa568-alkyne using the conditions described herein for staining cells labeled with EdU. FIG. 16 presents two pictures of a field of the stained HeLa cells.

HeLa cells [2] = assay: EdU labeling of HeLa cells, fixed/permeabilized, stained with Xrhodamine-azide (click chemistry); type: cell-based; conditions: 1 μM EdU, cell in anaphase, FIG. 11
Description: Ethynyl-dU (EdU) was used in tissue culture media (DMEM complemented with penicillin, streptomycin, and fetal calf serum (FCS)) ranging from 10 nM to 1 μM depending on the length of the labeling pulse. For example, if cells to be labeled were synchronized in the S phase, 100 nM to 1 μM of EdU was used for 1 to 2 hours. After labeling, the cells were washed 3 or 4 times with PBS and then tissue culture media was added.
Staining Solution: 100 mM Tris pH 8.5 (from 2 M stock in water), 0.5 to 1 mM CuSO4 (from 1 M stock in water), 0.5 to 1 μM fluorophore-azide (from approximately 10-100 mM stock in DMSO), and water (as required) were mixed together. Ascorbic acid (from a […] stock in water) was then added to this solution to a final concentration of 50-100 mM, and the resulting staining solution is mixed thoroughly using a vortex.
Cells can be fixed by any suitable method, e.g., cells can be fixed by aldehyde fixation (formaldehyde or glutaraldehyde), with or without permeabilization. After fixation, the cells were washed in buffer with or without non-ionic detergent (0.2-0.5% Triton X100). Before staining, cells were rinsed with buffer without detergent (PBS or TBS). The cells were then incubated in the presence of the staining solution for at least 30 minutes. Overnight staining is preferably performed in a cold room. […]

HeLa cells [3] = assay: Time-lapse fluorescence imaging of EdU-labeled live cells stained with TMR-propyl-azide; type: cell-based; conditions: 200 nM TMR-propyl-azide, 25 mM ascorbate, 1 mM copper (II) sulfate, 37° C.; FIG. 7
Description: Ascorbic acid (from a […] stock in water) was then added to this solution to a final concentration of 50 mM, and the resulting staining solution is mixed thoroughly.
Washes with methanol or ethanol may be performed to obtain low background
To facilitate live microscopic imaging, EdU-labeled cells were plated in coverslip chambers which were mounted on the heated stage (37° C.) of an inverted Nikon TE200)U microscope equipped for wide-field fluorescence microscopy as well as spinning-disk confocal fluorescence microscopy (Yokogama spinning disk confocal head from Perkin-Elmer). […] The cells were imaged by time-lapse fluorescent microscopy (one frame every 15 seconds) to detect the TMR signal accumulating in the nuclei of the EdU-labeled cells.

[4] = system: mouse intestine and brain; assay: In vivo EdU labeling of mice, organ sections stained with Xrhodamine-azide and Hoechst; conditions: 200 micrograms EdU intraperitoneally, organs harvested three days later
Description: BLAB/C mice were injected with 200 micrograms of EdU intraperitoneally. Three days later, organs were harvested, fixed, embedded in paraffin and sectioned. The sections were then de-waxed and stained with Xrhadomine-azide for 5 minutes, stained with Hoechst, washed and then mounted.

HeLa cells [5] = assay: Tracing a single sister chromatid: EdU pulse, chase of two cell cycles, Alexa568-azide stain; type: cell-based; conditions: EdU pulse during DNA synthesis, Alexa568-azide with permeabilization, FIG. 13
Text: The purpose of the experiment reported herein was to label only one DNA molecule of the two that form a chromosome. That was accomplished by pulsing HeLa cells with EdU during DNA synthesis followed by a chase lasting two cell cycles, as depicted on FIG. 12. […] EdU allowed very nice resolution imaging of chromosomes in cells as shown by FIG. 13.

Row | Compound | detection of AdU in labeled cells (HeLa cells [1]) | EdU stain of cellular DNA (fluorescence microscopy) (HeLa cells [2]) | time to complete EdU detection on live cells (HeLa cells [3]) | EdU incorporation in intestine section ([4]; FIG. 8) | EdU-labeled cells in brain section ([4]; FIG. 10) | DNA molecules of a chromosome labeled after first and second mitosis (HeLa cells [5])
1 | [N-]=[N+]=Nc1cn([C@H]2C[C@H](O)[C@@H](CO)O2)c(=O)[nH]c1=O [AdU, 5-azido-2′-deoxyuridine] | clearly detected in the nuclei of the labeled interphase cells as well as in the condensed chromosomes of mitotic cells |  |  |  |  | 
2 | C#Cc1cn([C@H]2C[C@H](O)[C@@H](CO)O2)c(=O)[nH]c1=O [EdU, 5-ethynyl-2′deoxyuracil] |  | only the DNA replicating during the pulse was labeled | complete within minutes | The cells with red nuclei are the cells which incorporated EdU and their descendants | A sole EdU-labeled cell can be easily identified | In the first mitosis after labeling, both DNA molecules were labeled while in the second mitosis only one DNA molecule was labeled
